We go through two compounds from PMC9499463, “Potent Chlorambucil-Platinum(IV) Prodrugs” (International Journal of Molecular Sciences, 2022).

Several values for one entry are separate records, joined by “and”; a condition that tells them apart may be missing. Identical values can stand only once. Like-named read-outs stand apart in the source and are kept apart here.

Series [1] has as its system MCF-7 breast. As to conditions: MCF-7 cell line; read-out: GI50 MCF-7 of prodrug designed by Ma et al.; cited from earlier work.
Series [2] relates to MCF-7 breast. The series can be described thus: MTT growth inhibition assay, 72 h. The series is classed as cell-based, human. As to conditions: Homo sapiens, MCF7; MTT, 72 h.
Another series deals with panel of cell lines. Description: MTT growth inhibition assay, 72 h, over the cell line panel. As to conditions: Homo sapiens. Type of series: cell-based, human.
The next series deals with BE2-C neuroblastoma. Description: MTT growth inhibition assay, 72 h. Type of series: cell-based, human. To be noted: Homo sapiens, BE(2)-C.
Series [3] relates to non-tumor-derived MCF10A breast line. Description: MTT growth inhibition assay, 72 h. Type of series: cell-based, human. To be noted: Homo sapiens, MCF-10A.
Another series relates to A431 skin. Description: MTT growth inhibition assay, 72 h. Type of series: cell-based, human. As to conditions: Homo sapiens, A-431.
In another series the test system is HT29 colon cells. The series can be described thus: ROS detection assay (DCFH-DA fluorescence). To be noted: compounds at GI50 concentration, TBHP and NAC 20 μM. Type of series: cell-based, human. The method, then:
HT29 colon cells were stained by DCFH-DA and then treated with the compounds at each specific GI50 concentration. Upon ROS production, the DCFH-DA produced […], a fluorescent product. The measured fluorescence was, therefore, proportional to the produced ROS. […] 56CLB at 24 h reported 395 RFU, 437 RFU at 48 h, and 558 RFU at 72 h (Table 6, Figure 14 and Figure S42), respectively, showing a significant production of ROS in comparison to control cells. 5CLB at 24 h produced 337 RFU, 324 RFU at 48 h, and 376 RFU at 72 h (Table 6, Figure 14 and Figure S42), respectively.
To investigate for the presence of ROS in treated cells, DCFDA/H2DCFDA-cellular ROS Assay Kit (Abcam, Cambridge, MA, USA) was used, as described. A total of 25,000 cells/mL of HT29 cells in DMEM were seeded in 96-well plates. Cells were washed with 1X kit buffer, then stained with 25 μM 2’,7’-dichlorofluorescein diacetate (DCFH-DA) and incubated for 45 min. DCFH-DA was then removed, and cells were then re-washed with 1X kit buffer, after which phenol red free media was added. Cells were then treated with GI50 drug concentration for each complex. The plates were directly scanned to measure fluorescence (relative fluorescence units (RFU)) at different time points using the Glo-Max®-Multimode microplate reader (Promega Corporation, Alexandra, VIC, Australia) at an excitation/emission of 485/535 nm. To generate the positive control (20 μM tert-butyl hydroperoxide (TBHP)), cells were washed with 1X kit buffer, and stained with DCFDA (25 μM) for 45 min. DCFDA was then removed and TBHP was added in phenol red free media. The plate was scanned to measure the RFU at different time points as mentioned above. The same method applies for the negative control treated with 20 μM N-acetylcysteine (NAC).

The next series deals with H460 lung. The series can be described thus: MTT growth inhibition assay, 72 h. The series is classed as cell-based, human. As to conditions: Homo sapiens, NCI-H460.
In the next series the test system is A2780 ovarian. The series can be described thus: MTT growth inhibition assay, 72 h. The series is classed as cell-based, human. As to conditions: Homo sapiens, A2780.
For another series, the system named is SJ-G2 glioblastoma. Description: MTT growth inhibition assay, 72 h. Type of series: cell-based, human. To be noted: Homo sapiens, SJ-G2.
The subject of another series is MIA pancreas. The series can be described thus: MTT growth inhibition assay, 72 h. Type of series: cell-based, human. To be noted: Homo sapiens; MTT, 72 h.
Series [4] can be described thus: Lipophilicity by HPLC (log kw). The series is classed as physicochemical. As to conditions: chromatographic lipophilicity index, extrapolated to 100% d.i.H2O. From the text: For lipophilicity measurements, HPLC was utilized instead of the traditional shake-flask method, as described. A few studies have also reported the important and effective use of HPLC to measure the lipophilicity of compounds [66, 67]. Each complex was eluted under several isocratic ratios. A standard curve was then generated to calculate the log value of the capacity factor (log k) according to eqn (1). Following eqn (2), the percentage of organic solvent (CH3CN) in the mobile phase from each isocratic run was plotted against […] (Figure S34). Since log kw is the chromatographic lipophilicity index or measure of lipophilicity of the complex, a higher value corresponds to greater lipophilicity. Since PCLB, 5CLB, and 56CLB are structurally related, there were no significant variations in lipophilicity noted based on the calculated log kw values (Table 4). It is evident that PCLB is the least lipophilic of the group, with a calculated log kw value of 1.80, which is likely due to the absence of methyl groups in its phenanthroline system. 5CLB and 56CLB were the most lipophilic of the group with calculated log kw values of 1.90 and 1.87, respectively, and this is due to the presence of methyl substituents in their phenanthroline systems. […] Additionally, the chromatographic lipophilicity index of CLB was also measured using the abovementioned method, with a calculated log kw of 1.88, which is within the range observed for PCLB, 5CLB, and 56CLB. However, CLB was approximately 1-fold more lipophilic than PCLB. […] The order of increasing lipophilicity is […].
For lipophilicity measurements, analytical HPLC was utilized. Elution profiles were acquired on an Agilent Technologies 1260 Infinity instrument equipped with a Phenomenex Onyx^TM Monolithic C18-reverse phase column (100 × 4.6 mm, 5 µm pore size). The mobile phase consisted of solvents, A (0.06% TFA in d.i.H2O) and B (0.06% TFA in CH3CN/d.i.H2O (90:10)). Potassium iodide was used as an external dead volume marker to determine the dead time of the column. Retention times (TR) were measured at varying isocratic ratios ranging from 42% to 48% of solvent B at 1 mL/min. An injection volume of 10 µL was utilized. Capacity factors were determined according to Equation (1):(1) k=(TR−T0)/T0, where k is the capacity factor, TR is the retention time of the analyte, and T0 represents the dead time. A minimum of four different mobile compositions were used for each complex to calculate k. A linear plot was generated of log k against the concentration of CH3CN in the mobile phase to determine the value of log kw expressed by Equation (2):(2) logk=Sφ+logkw, where S is the slope, φ is the concentration of the CH3CN in the mobile phase and log kw represents the capacity factor of the complex in 100% d.i.H2O. […]

For another series, the system named is Du145 prostate. The series can be described thus: MTT growth inhibition assay, 72 h. Type of series: cell-based, human. As to conditions: Homo sapiens, DU-145; MTT, 72 h.
For another series, the system named is HT29 colon. The series can be described thus: MTT growth inhibition assay, 72 h. To be noted: Homo sapiens, HT-29; MTT, 72 h. The series is classed as cell-based, human.
In series [5] the test system is ADDP ovarian (cisplatin-resistant A2780 clone). Description: MTT growth inhibition assay, 72 h. The series is classed as cell-based, human. To be noted: Homo sapiens, Cisplatin-resistant A2780; MTT, 72 h.
The next series has as its system U87 glioblastoma. Description: MTT growth inhibition assay, 72 h. The series is classed as cell-based, human. As to conditions: Homo sapiens.

Consider `N.N.O=C([O-])CCCc1ccc(N(CCCl)CCCl)cc1.O=C([O-])CCCc1ccc(N(CCCl)CCCl)cc1.[Cl-].[Cl-].[Pt+4]`, for which the GI50 in the series on MCF-7 breast [1] was 2.19 ± 2e-05 µM.
In the case of `O=C(O)CCCc1ccc(N(CCCl)CCCl)cc1` [CLB, 4-[bis(2-chloroethyl)amino] phenylbutyric acid, reference compound], the GI50 was 11 µM with MCF-7 breast [2]; 22 µM with panel of cell lines (average over all cell lines tested, read-out: Average GI50 Values); 4.3 to 40 µM in the series with panel of cell lines (range over the cell lines named in the sentence, read-out: GI50 values ranging (over cell lines)); 20 µM in the series with BE2-C neuroblastoma; 17 µM in series [3]; 35 µM in the series with A431 skin. The 50% growth inhibitory concentration (GI50) amounted to 11 µM with H460 lung; 4.3 ± 0.0004 µM with A2780 ovarian; 11 µM in the series on SJ-G2 glioblastoma; 40 µM with MIA pancreas; 27 µM in the series on Du145 prostate; 39 µM in the series with HT29 colon. Also, the GI50 in series [5] came to 16 µM; in the series on U87 glioblastoma, 38 µM. Also, the “ROS Production” value is 110 ± 3 RFU with HT29 colon cells (24 h); 190 RFU and 190 ± 5 RFU with HT29 colon cells (48 h); 204 ± 4 RFU in the series with HT29 colon cells (72 h). Further, the log kw in [4] is given as 1.88.
